# Molecular target: Neprilysin/Angiotensin-converting enzyme (Homo sapiens, UniProt P12821+P08473)
# Test: Enzyme Inhibition Assay: The assays were performed in 384-well white opaque plates at 37° C. using the fluorogenic peptide substrates at a concentration of 10 μM in Assay Buffer (NEP: 50 mM HEPES, pH 7.5, 100 mM NaCl, 0.01% polyethylene glycol sorbitan monolaurate (Tween-20), 10 μM ZnSO4; ACE: 50 mM HEPES, pH 7.5, 100 mM NaCl, 0.01% Tween-20, 1 μM ZnSO4). The respective enzymes were used at …
# Format: protein-complex assay
# Description: Enzyme Inhibition Assay: The assays were performed in 384-well white opaque plates at 37° C. using the fluorogenic peptide substrates at a concentration of 10 μM in Assay Buffer (NEP: 50 mM HEPES, pH 7.5, 100 mM NaCl, 0.01% polyethylene glycol sorbitan monolaurate (Tween-20), 10 μM ZnSO4; ACE: 50 mM HEPES, pH 7.5, 100 mM NaCl, 0.01% Tween-20, 1 μM ZnSO4). […] Test compounds were added to the enzymes and incubated for 30 minute at 37° C. prior to initiating the reaction by the addition of substrate. Reactions were terminated after 20 minutes of incubation at 37° C. by the addition of glacial acetic acid to a final concentration of 3.6% (v/v).
structure (smiles),measurement,value
O=C(O)C(=O)NC(Cc1ccc(-c2ccccc2)cc1)CC(O)C(=O)O (stereo unspecified),Ki,35.5 nM

# — ChEMBL document CHEMBL5729531, “Neprilysin inhibitors” (2023)
